# Results reported in patent publication US7906128B2, “Use of neuronal sodium channel antagonists for the control of ectoparasites in homeothermic animals” (priority 2003, dated 2011).
# Assays:
# [1] = system: newly emerged larvae of blowfly, Lucilia sericata; experiment: Efficacy against blowfly larvae on treated filter paper discs; conditions: for LC50: Lucilia sericata
# Protocol: In this evaluation, filter paper discs are treated with an acetone solution of test compound and allowed to dry.
# adult fleas = experiment: Efficacy against adult fleas on beagles, full body spray; format: in vivo; conditions: full body spray 0.40% (wt/vol), Compound A 20 mg/kg, Standard 14.5 mg/kg body wt.
# Protocol: In this evaluation twelve beagles are each infested with 100 unfed adult fleas. Each dog is assessed for its ability to retain fleas by a comb count taken 24 hours post infestation. The dogs are blocked by these flea counts and randomly assigned to one of four treatment groups. Test compounds are applied as a full body spray of a 0.40% (wt/vol) solution of test compound in a mixture of 1% Miglyol in N-methyl-2-pyrrolidinone. One day prior to treatment each dog is infested with 100 fleas and one day post treatment the dogs are comb counted to check for knockdown efficacy. The dogs were subsequently re-infested with fleas and comb counted 24 hours later at weekly intervals.
smiles,measurement,setting,value
"N#Cc1nn(-c2c(Cl)cc(C(F)(F)F)cc2Cl)c(N)c1[S+]([O-])C(F)(F)F (centres unmarked) [Standard, fipronil]",LC50,[1]; 24 h,0.1 µg/mL
same,LC50,[1]; 48 h,0.07 µg/mL
same,LC99,[1]; mortality at 24 h,0.40 µg/mL
same,LC99,[1]; mortality at 48 h,0.30 µg/mL
same,% Efficacy relative to nontreated control,adult fleas; 1 DAT,100%
same,% Efficacy relative to nontreated control,adult fleas; 7 DAT,100%
same,% Efficacy relative to nontreated control,adult fleas; 14 DAT,100%
same,% Efficacy relative to nontreated control,adult fleas; 21 DAT,100%
same,% Efficacy relative to nontreated control,adult fleas; 28 DAT,100%
same,% Efficacy relative to nontreated control,adult fleas; 35 DAT,100%
same,% Efficacy relative to nontreated control,adult fleas; 42 DAT,100%
same,% Efficacy relative to nontreated control,adult fleas; 49 DAT,100%
same,% Efficacy relative to nontreated control,adult fleas; 56 DAT,100%
same,% Efficacy relative to nontreated control,adult fleas; 62 DAT,99.5%
